# Laboratory results taken from patent publication US12427163B2, “Anti-VTCN1 antibodies and antibody drug conjugates” (Bluefin BioMedicine, Inc., priority 2017, dated 2025).
# Columns and labels:
# 4T1 tumors = assay: 4T1 mouse triple negative breast cancer model in Balb/C mice; format: in vivo
# Procedure: 6-8 week-old Balb/C mice were injected with 0.1 million of 4T1 cells in the mammary fat pad. On day 5, mice were randomized to 4 treatment groups, PBS, 6D9 (10 mg/kg), Gemcitabine (75 mg/kg), and 6D9 (10 mg/kg) plus gemcitabine (75 mg/kg). All treatments were by intraperitoneal injection and mice received a total of 5 treatments on days 5, 8, 12, 14, and 16.
# The tumors and lymph nodes were harvested from these mice, and cells were dissociated and subjected to immune cell profiling by flow cytometry analysis.
# human monocytes = assay: Cytokine treatment of monocytes, expression of VTCN1, PD-L1, CD80 by flow cytometry; format: cell-based; details: 24, 48, or 73 hours
# Procedure: VTCN1 is expressed in monocytes and macrophages in a tumor microenviroment, the expression induced by cytokines in tumor microenviroment. VTCN1 positive macrophages inhibit T cell activation. Monocytes from healthy donors were treated with IFNγ and IL-6 to assess VTCN1 expression. Monocytes were enriched from fresh PBMC from healthy donor using a monocyte enrichment kit from Stemcell Technologies, and the purity of the obtained monocytes is greater than 95%. Monocytes were cultured in 24 well plate with different concentration of INFγ or LI-6 for 24, 48, or 73 hours, expression of VTCN1, PD-L1, and CD80 was assessed by flow cytometry. […] CD80 was expressed at low level in monocytes, and is not very responsive to cytokine treatment.
Molecule,"4T1 tumor growth (4T1 tumors; 6D9 10 mg/kg, gemcitabine 75 mg/kg, i.p., days 5, 8, 12, 14, 16)","tumor-free mice (complete response; CR) at end of study on day 65 (4T1 tumors; mouse, in vivo)",VTCN1 and PD-L1 expression in monocytes (human monocytes)
"Nc1ccn([C@@H]2O[C@H](CO)[C@@H](O)C2(F)F)c(=O)n1 [Gemcitabine, gemcitabine]",totally inhibited tumor growth at the early stage of the study with tumor regrowth after 30 days,none of the mice in the gemcitabine alone group were tumor-free,
IL6: cytokine added to human monocyte cultures,,,VTCN1 and PD-L1 expression was induced
